Each molecule was assayed against human P2X7 (Homo sapiens (Human), UniProt Q99572) (assay: P2X7 antagonism in human PBMCs (IL-1β release after LPS + Bz-ATP, ELISA)). Conditions: human PBMCs, test compound 10 μM.
Type: cell-based

Chain of human P2X7 (Q99572 whole entry): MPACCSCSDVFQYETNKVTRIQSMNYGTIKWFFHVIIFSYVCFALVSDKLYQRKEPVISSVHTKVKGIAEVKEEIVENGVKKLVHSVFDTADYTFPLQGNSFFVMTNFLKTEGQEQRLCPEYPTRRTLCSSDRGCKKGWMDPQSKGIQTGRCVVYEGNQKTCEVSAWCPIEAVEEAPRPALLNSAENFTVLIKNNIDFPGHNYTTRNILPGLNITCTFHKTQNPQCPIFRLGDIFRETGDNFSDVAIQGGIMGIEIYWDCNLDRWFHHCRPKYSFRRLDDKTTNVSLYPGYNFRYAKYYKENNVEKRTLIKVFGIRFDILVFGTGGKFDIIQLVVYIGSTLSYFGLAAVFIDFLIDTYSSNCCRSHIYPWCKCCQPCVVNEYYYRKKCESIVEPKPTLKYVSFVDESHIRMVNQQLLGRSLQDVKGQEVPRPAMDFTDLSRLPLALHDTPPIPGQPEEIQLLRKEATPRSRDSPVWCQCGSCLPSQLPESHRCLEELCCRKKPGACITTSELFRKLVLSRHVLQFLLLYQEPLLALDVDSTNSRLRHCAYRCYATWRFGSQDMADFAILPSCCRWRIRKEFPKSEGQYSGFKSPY

Compound | PBMC 10 μM (% control)
C[C@H]1c2nnn(-c3ncccn3)c2CCN1C(=O)c1cccc(C(F)(F)F)c1F (single isomer, unassigned) [Example 270, (S*)-(2-fluoro-3-(trifluoromethyl)phenyl)(4-methyl-1-(pyrimidin-2-yl)-6,7-dihydro-1H-[1,2,3]triazolo[4,5-c]pyridin-5(4H)-yl)methanone] | 47.9
Cc1cccnc1-n1nnc2c1CCN(C(=O)c1cccc(C(F)(F)F)c1Cl)[C@@H]2C (single isomer, unassigned) [Example 291, (R*)-(2-chloro-3-(trifluoromethyl)phenyl)(4-methyl-1-(3-methylpyridin-2-yl)-6,7-dihydro-1H-[1,2,3]triazolo[4,5-c]pyridin-5(4H)-yl)methanone] | −7.1
CCc1ccnc(-n2nnc3c2CCN(C(=O)c2cccc(C(F)(F)F)c2Cl)[C@@H]3C)n1 (single isomer, unassigned) [Example 294, (R*)-(2-chloro-3-(trifluoromethyl)phenyl)(1-(4-ethylpyrimidin-2-yl)-4-methyl-6,7-dihydro-1H-[1,2,3]triazolo[4,5-c]pyridin-5(4H)-yl)methanone] | −8.1
Cc1nc(-n2nnc3c2CCN(C(=O)c2cccc(C(F)(F)F)c2Cl)[C@@H]3C)ncc1F (single isomer, unassigned) [Example 305, (R*)-(2-chloro-3-(trifluoromethyl)phenyl)(1-(5-fluoro-4-methylpyrimidin-2-yl)-4-methyl-6,7-dihydro-1H-[1,2,3]triazolo[4,5-c]pyridin-5(4H)-yl)methanone] | 0.9
CCOc1cccnc1-n1nnc2c1CCN(C(=O)c1cccc(C(F)(F)F)c1Cl)[C@@H]2C (single isomer, unassigned) [Example 316, (R*)-(2-chloro-3-(trifluoromethyl)phenyl)(1-(3-ethoxypyridin-2-yl)-4-methyl-6,7-dihydro-1H-[1,2,3]triazolo[4,5-c]pyridin-5(4H)-yl)methanone] | −9.6
CCOc1cccnc1-n1nnc2c1CCN(C(=O)c1cccc(C(F)(F)F)c1Cl)[C@H]2C (single isomer, unassigned) [Example 317, (S*)-(2-chloro-3-(trifluoromethyl)phenyl)(1-(3-ethoxypyridin-2-yl)-4-methyl-6,7-dihydro-1H-[1,2,3]triazolo[4,5-c]pyridin-5(4H)-yl)methanone] | 4.8
C[C@@H]1Cc2c(nnn2-c2ccn[nH]2)CN1C(=O)c1cccc(C(F)(F)F)c1F (single isomer, unassigned) [Example 348, (R*)-(2-fluoro-3-(trifluoromethyl)phenyl)(6-methyl-1-(1H-pyrazol-5-yl)-6,7-dihydro-1H-[1,2,3]triazolo[4,5-c]pyridin-5(4H)-yl)methanone] | 77.7
Cc1cc(-n2nnc3c2CCN(C(=O)c2cc(C(F)(F)F)ccc2Cl)[C@@H]3C)ncc1F (single isomer, unassigned) [Example 353, (R*)-(2-chloro-5-(trifluoromethyl)phenyl)(1-(5-fluoro-4-methylpyridin-2-yl)-4-methyl-6,7-dihydro-1H-[1,2,3]triazolo[4,5-c]pyridin-5(4H)-yl)methanone] | 107.5
Cc1ccnc(-n2nnc3c2CCN(C(=O)c2ccnc(C(F)(F)F)c2Cl)[C@H]3C)c1 (single isomer, unassigned) [Example 360, (S*)-(3-chloro-2-(trifluoromethyl)pyridin-4-yl)(4-methyl-1-(4-methylpyridin-2-yl)-6,7-dihydro-1H-[1,2,3]triazolo[4,5-c]pyridin-5(4H)-yl)methanone] | −7.1
Cc1cc(-n2nnc3c2CCN(C(=O)c2ccc(Cl)c(C(F)(F)F)c2)[C@@H]3C)ncc1F (single isomer, unassigned) [Example 365, (R*)-(4-chloro-3-(trifluoromethyl)phenyl)(1-(5-fluoro-4-methylpyridin-2-yl)-4-methyl-6,7-dihydro-1H-[1,2,3]triazolo[4,5-c]pyridin-5(4H)-yl)methanone] | 108.2
Cc1cc(-n2nnc3c2CCN(C(=O)c2ccc(Cl)c(C(F)(F)F)c2)[C@H]3C)ncc1F (single isomer, unassigned) [Example 366, (S*)-(4-chloro-3-(trifluoromethyl)phenyl)(1-(5-fluoro-4-methylpyridin-2-yl)-4-methyl-6,7-dihydro-1H-[1,2,3]triazolo[4,5-c]pyridin-5(4H)-yl)methanone] | 2.0
Cc1cc(-n2nnc3c2CCN(C(=O)c2ccnc(C(F)(F)F)c2F)[C@H]3C)ncc1F (single isomer, unassigned) [Example 369, (S*)-(3-fluoro-2-(trifluoromethyl)pyridin-4-yl)(1-(5-fluoro-4-methylpyridin-2-yl)-4-methyl-6,7-dihydro-1H-[1,2,3]triazolo[4,5-c]pyridin-5(4H)-yl)methanone] | 74.5
Cc1ccnc(-n2nnc3c2CCN(C(=O)c2cccc(OC(F)(F)F)c2)[C@@H]3C)c1 (single isomer, unassigned) [Example 376, (R*)-(4-methyl-1-(4-methylpyridin-2-yl)-6,7-dihydro-1H-[1,2,3]triazolo[4,5-c]pyridin-5(4H)-yl)(3-(trifluoromethoxy)phenyl)methanone] | 96.3
Cc1cccc(-n2nnc3c2CCN(C(=O)c2cccc(Cl)c2Cl)[C@@H]3C)n1 (single isomer, unassigned) [Example 389, (R*)-(2,3-dichlorophenyl)(4-methyl-1-(6-methylpyridin-2-yl)-6,7-dihydro-1H-[1,2,3]triazolo[4,5-c]pyridin-5(4H)-yl)methanone] | 88.9
Cc1cccc(-n2nnc3c2CCN(C(=O)c2cccc(Cl)c2Cl)[C@H]3C)n1 (single isomer, unassigned) [Example 390, (S*)-(2,3-dichlorophenyl)(4-methyl-1-(6-methylpyridin-2-yl)-6,7-dihydro-1H-[1,2,3]triazolo[4,5-c]pyridin-5(4H)-yl)methanone] | 6.5

Now from value to molecule:

PBMC 10 μM (% control) | Compound
−5.5 | Cc1ccc(-n2nnc3c2CCN(C(=O)c2cccc(C(F)(F)F)c2Cl)[C@@H]3C)nc1 (single isomer, unassigned) [Example 255, (R*)-(2-chloro-3-(trifluoromethyl)phenyl)(4-methyl-1-(5-methylpyridin-2-yl)-6,7-dihydro-1H-[1,2,3]triazolo[4,5-c]pyridin-5(4H)-yl)methanone]
16.2 | C[C@@H]1Cc2c(nnn2-c2ccn[nH]2)CN1C(=O)c1cccc(C(F)(F)F)c1Cl (single isomer, unassigned) [Example 350, (R*)-(2-chloro-3-(trifluoromethyl)phenyl)(6-methyl-1-(1H-pyrazol-5-yl)-6,7-dihydro-1H-[1,2,3]triazolo[4,5-c]pyridin-5(4H)-yl)methanone]
0.6 | C[C@H]1Cc2c(nnn2-c2ccn[nH]2)CN1C(=O)c1cccc(C(F)(F)F)c1Cl (single isomer, unassigned) [Example 351, (S*)-(2-chloro-3-(trifluoromethyl)phenyl)(6-methyl-1-(1H-pyrazol-5-yl)-6,7-dihydro-1H-[1,2,3]triazolo[4,5-c]pyridin-5(4H)-yl)methanone]
83.4 | Cc1cc(-n2nnc3c2CCN(C(=O)c2cc(C(F)(F)F)ccc2Cl)[C@H]3C)ncc1F (single isomer, unassigned) [Example 354, (S*)-(2-chloro-5-(trifluoromethyl)phenyl)(1-(5-fluoro-4-methylpyridin-2-yl)-4-methyl-6,7-dihydro-1H-[1,2,3]triazolo[4,5-c]pyridin-5(4H)-yl)methanone]
−8.2 | Cc1ccnc(-n2nnc3c2CCN(C(=O)c2ccnc(C(F)(F)F)c2Cl)[C@@H]3C)c1 (single isomer, unassigned) [Example 359, (R*)-(3-chloro-2-(trifluoromethyl)pyridin-4-yl)(4-methyl-1-(4-methylpyridin-2-yl)-6,7-dihydro-1H-[1,2,3]triazolo[4,5-c]pyridin-5(4H)-yl)methanone]
113.7 | C[C@H]1c2nnn(-c3cccc(C(F)(F)F)n3)c2CCN1C(=O)c1cccc(C(F)(F)F)c1Cl (single isomer, unassigned) [Example 380, (S*)-(2-chloro-3-(trifluoromethyl)phenyl)(4-methyl-1-(6-(trifluoromethyl)pyridin-2-yl)-6,7-dihydro-1H-[1,2,3]triazolo[4,5-c]pyridin-5(4H)-yl)methanone]
87.3 | Cc1cc(-n2nnc3c2CCN(C(=O)c2cccc(C(F)(F)F)c2Cl)[C@H]3C)ncc1F (single isomer, unassigned) [Example 383, (S*)-(2-chloro-3-(trifluoromethyl)phenyl)(1-(5-fluoro-4-methylpyridin-2-yl)-4-methyl-6,7-dihydro-1H-[1,2,3]triazolo[4,5-c]pyridin-5(4H)-yl)methanone]
107.5 | Cc1cccc(-n2nnc3c2CCN(C(=O)c2cccc(C(F)(F)F)c2F)[C@@H]3C)n1 (single isomer, unassigned) [Example 386, (R*)-(2-fluoro-3-(trifluoromethyl)phenyl)(4-methyl-1-(6-methylpyridin-2-yl)-6,7-dihydro-1H-[1,2,3]triazolo[4,5-c]pyridin-5(4H)-yl)methanone]
112.1 | Cc1ccnc(-n2nnc3c2CCN(C(=O)c2cccc(Cl)c2Cl)[C@@H]3C)n1 (single isomer, unassigned) [Example 391, (R*)-(2,3-dichlorophenyl)(4-methyl-1-(4-methylpyrimidin-2-yl)-6,7-dihydro-1H-[1,2,3]triazolo[4,5-c]pyridin-5(4H)-yl)methanone]
6.2 | Cc1ccnc(-n2nnc3c2CCN(C(=O)c2cccc(Cl)c2Cl)[C@@H]3C)c1 (single isomer, unassigned) [Example 394, (R*)-(2,3-dichlorophenyl)(4-methyl-1-(4-methylpyridin-2-yl)-6,7-dihydro-1H-[1,2,3]triazolo[4,5-c]pyridin-5(4H)-yl)methanone]

Reference: US10112937B2, “P2X7 modulators and methods of use” (Janssen Pharmaceutica NV, priority 2013, dated 2018)
